Entries after “also recorded” stand apart in the source; their conditions may differ.
Key:
Assay type in all cases: in vivo
Lepr^db/db female mice [1] = assay: LV end diastolic pressure measurement by pressure catheter in Lepr^db/db mice; conditions: 2 month old Lepr^db/db female mice
Description: Lepr^db mice (BKS.Cg-Dock7m/+ Lepr^db/+J) were obtained from Charles River laboratories and bred together to obtain Lepr^db/db and control Lepr^db/+ mice. To prevent mast cell degranulation, mice were treated with 50 mg/kg/day cromolyn sodium (Abcam) via intra-peritoneal injections for 28 days. Untreated mice received 0.9% NaCl daily intra-peritoneal injections. […] LV diastolic pressure measurement was assessed using pressure—volume conductance catheter technique. Briefly, mice will be anesthetized with Isoflurane. A Scisense pressure catheter (Transonic) will be inserted into the LV through the common carotid artery. Pressure will be recorded using […] LabChart software. End diastolic pressure, dP/dt minimum and maximum, Tau and heart rate were automatically calculated by a curve fit through end-systolic and end-diastolic points on the pressure plot.

Lepr^db/db female mice [2] = assay: Echocardiography (ejection fraction, LV wall thickness) in Lepr^db/db mice; conditions: data not shown
From the text: Lepr^db mice (BKS.Cg-Dock7m/+ Lepr^db/+J) were obtained from Charles River laboratories and bred together to obtain Lepr^db/db and control Lepr^db/+ mice.
[…] Untreated mice received 0.9% NaCl daily intra-peritoneal injections.
Left-ventricular ejection fraction and LV dimension will be measured on a high-resolution echocardiographic system equipped with a 30-MHz mechanical transducer (VEVO 2100, VisualSonics Inc.) as previously described 13,14. Mice were anchored to a warming platform in a supine position, limbs were taped to the echocardiograph electrodes, and chests were shaved and cleaned with a chemical hair remover to minimize ultrasound attenuation. UNI′GEL ECG (Asept Inmed), from which all air bubbles had been expelled, was applied to the thorax to optimize the visibility of the cardiac chambers. Ejection fractions were evaluated by planimetry as recommended (Schiller et al. 1989). Two-dimensional, parasternal long-axis and short-axis views were acquired, and the endocardial area of each frame was calculated by tracing the endocardial limits in the long-axis view, then the minimal and maximal areas were used to determine the left-ventricular end-systolic (ESV) and end-diastolic (EDV) volumes, respectively. The system software uses a formula based on a cylindrical-hemiellipsoid model (volume=8·area^2/3π/length) 15. The left-ventricular ejection fraction was derived from the following formula: (EDV−ESV)/EDV*100. The cardiac wall thickness (Left ventricular posterior wall (LVPW), Inter-ventricular septum (IVS) and left ventricular internal diameter (LVID) were calculated by tracing wall limits in both the long and short axis views.

Lepr^db/db female mice [3] = assay: Immuno-histological assessment of the heart (capillaries, albumin, CD45+ leucocytes, mast cells, cardiomyocyte size) in Lepr^db/db mice
Description: Lepr^db mice (BKS.Cg-Dock7m/+ Lepr^db/+J) were obtained from Charles River laboratories and bred together to obtain Lepr^db/db and control Lepr^db/+ mice. To prevent mast cell degranulation, mice were treated with 50 mg/kg/day cromolyn sodium (Abcam) via intra-peritoneal injections for 28 days. Untreated mice received 0.9% NaCl daily intra-peritoneal injections. […] Prior to staining, heart were stopped in diastole using KCl, perfused and then fixed in 10% formalin for 4 hours, paraffin embedded and cut into 7 μm thick sections. Alternatively, heart were fresh frozen in OCT, then cut into 7 μm thick sections. ECs were identified using rat anti-CD31 antibodies (Histonova, cat #DIA-310). Albumin was stained using sheep anti-albumin antibodies (Abcam, Cat #ab8940). Pan-leucocytes were identified using rat anti-mouse CD45 antibodies (BD Pharmingen Inc, Cat #550539). For immunofluorescence analyzes, primary antibodies were resolved with Alexa Fluor®-conjugated secondary polyclonal antibodies (Invitrogen, Cat #[NT]-10037) and nuclei were counterstained with DAPI (1/5000). Negative controls using secondary antibodies only were done to check for antibody specificity. Capillary density (CD31+ vessels) was quantified in 4 pictures taken under ×260 magnification in areas where cardiomyocytes were oriented transversally. To assess the mean capillary diameter, the diameter of 10 capillary randomly chosen in each picture was measured via Image J. Inflammatory cell density (CD45+) was quantified in 8 pictures randomly taken under ×260 magnification. All pictures and quantifications (done using ImageJ/Fiji v2.0.0-rc-59 software (National Institute of Health, USA)) were performed by a blinded investigator. More precisely, all samples were assigned a random number prior to animal sacrifice, data collection and analysis. At the end of the experiment, the genotype/treatment for each animal was unveiled to allow data comparison and experimental conclusion.

Lepr^db/db female mice [4] = assay: Heart weight in Lepr^db/db mice; conditions: 50 mg/kg/day cromolyn sodium for 28 days; data not shown
Description: To prevent mast cell degranulation, mice were treated with 50 mg/kg/day cromolyn sodium (Abcam) via intra-peritoneal injections for 28 days. Untreated mice received 0.9% NaCl daily intra-peritoneal injections.

[5] = 50 mg/kg/day cromolyn sodium for 28 days

SMILES	End diastolic pressure (EDP) (Lepr^db/db female mice [1]; 4 mg/kg/day cetirizine orally (drinking water) for 28 days vs vehicle, FIG. 1B)	Ejection fraction (Lepr^db/db female mice [2]; 4 mg/kg/day cetirizine orally for 28 days)	End diastolic pressure (EDP) (Lepr^db/db female mice [1]; 50 mg/kg/day cromolyn sodium intra-peritoneal for 28 days vs vehicle, FIG. 1A)	End diastolic pressure (EDP) (Lepr^db/db female mice [1]; 50 mg/kg/day cromolyn sodium intra-peritoneal for 28 days vs vehicle, FIG. 1A, listed as Cromolyn Sodium)	End diastolic pressure (EDP) (Lepr^db/db female mice [1]; 50 mg/kg/day cromolyn sodium intra-peritoneal for 28 days vs vehicle, FIG. 1A, listed as Cromolyn sodium)	Ejection fraction (Lepr^db/db female mice [2]; [5])	LV posterior wall thickness (Lepr^db/db female mice [2]; [5])	Cardiac microvessel density (CD31+ vessels/mm^2) (Lepr^db/db female mice [3]; 50 mg/kg/day cromolyn sodium for 28 days vs vehicle, FIG. 2A)	Mean cardiac capillary diameter (Lepr^db/db female mice [3]; 50 mg/kg/day cromolyn sodium for 28 days vs vehicle, FIG. 2B)	Capillary permeability (albumin extravasation, albumin+ surface area) (Lepr^db/db female mice [3]; 50 mg/kg/day cromolyn sodium for 28 days vs vehicle, FIG. 2C)	CD45+ leucocyte recruitment (CD45+ cells/mm^2) (Lepr^db/db female mice [3]; 50 mg/kg/day cromolyn sodium for 28 days vs vehicle, FIG. 2D)	Percentage of degranulating mast cells in the heart (Lepr^db/db female mice [3]; 50 mg/kg/day cromolyn sodium for 28 days vs vehicle, data not shown)	Mean cardiomyocyte size (Lepr^db/db female mice [3]; 50 mg/kg/day cromolyn sodium for 28 days, data not shown)	Heart weight (Lepr^db/db female mice [4])
O=C(O)COCCN1CCN(C(c2ccccc2)c2ccc(Cl)cc2)CC1 (centres unmarked) [cetirizine]	significantly decreased	not modulated												
O=C(O)c1cc(=O)c2c(OCC(O)COc3cccc4oc(C(=O)O)cc(=O)c34)cccc2o1 [cromolyn sodium]			significantly decreased; also recorded: prevents increased EDP	prevents the occurrence of diastolic dysfunction	significantly reduced	not modulated	did neither modify	did not modify	did reduce	decreased	decreases; also recorded: significantly decreased	did decrease	did neither modify	did neither modify

— US20220387408A1, “USE OF MAST CELL STABILIZER FOR THE TREATMENT OF HEART FAILURE WITH PRESERVED EJECTION FRACTION” (INSERM (INSTITUT NATIONAL DE LA SANTÉ ET DE LA RECHERCHE …, priority 2019, published 2022)
